Test results as given in article PMC11002980 (RSC Advances, 2024).

Test system: MCF-7 breast cancer cells
Assay: MTT cytotoxicity assay on MCF-7 cells
Type: cell-based
Details: Homo sapiens, MCF7, read-out: MCF-7 (IC50)

In order of falling IC50:
1. COc1ccc(NC(=O)C2=C(C)NC(C)=C(C(=O)Nc3ccc(OC)cc3OC)C2c2ccccc2)c(OC)c1 [HD-1, N ^3,N^5-Bis(2,4-dimethoxyphenyl)-2,6-dimethyl-4-phenyl-1,4-dihydropyridine-3,5-dicarboxamide]  66.5 µM
2. COc1ccc(NC(=O)C2=C(C)NC(C)=C(C(=O)Nc3ccc(OC)cc3OC)C2c2ccc(O)cc2)c(OC)c1 [HD-5, N ^3,N^5-Bis(2,4-dimethoxyphenyl)-4-(4-hydroxyphenyl)-2,6-dimethyl-1,4-dihydropyridine-3,5-dicarboxamide]  62.1 µM
3. COc1ccc(NC(=O)C2=C(C)NC(C)=C(C(=O)Nc3ccc(OC)cc3OC)C2c2cccc(Cl)c2)c(OC)c1 [HD-3, 4-(3-Chlorophenyl)-N^3,N^5-bis(2,4-dimethoxyphenyl)-2,6-dimethyl-1,4-dihydropyridine-3,5-dicarboxamide]  59.4 µM
4. COc1cc(NC(=O)C2=C(C)NC(C)=C(C(=O)Nc3cc(OC)c(Cl)cc3OC)C2c2ccco2)c(OC)cc1Cl [HD-9, N ^3,N^5-Bis(4-chloro-2,5-dimethoxyphenyl)-4-(furan-2-yl)-2,6-dimethyl-1,4-dihydropyridine-3,5-dicarboxamide]  57.7 µM
5. COc1ccc(NC(=O)C2=C(C)NC(C)=C(C(=O)Nc3cc(OC)c(Cl)cc3OC)C2c2ccco2)c(OC)c1 (stereo not shown) [HD-14, N ^3-(4-Chloro-2,5-dimethoxyphenyl)-N^5-(2,4-dimethoxyphenyl)-4-(furan-2-yl)-2,6-dimethyl-1,4-dihydropyridine-3,5-dicarboxamide]  52.3 µM
6. COc1ccc(NC(=O)C2=C(C)NC(C)=C(C(=O)Nc3ccc(OC)cc3OC)C2c2ccc(Cl)cc2)c(OC)c1 [HD-2, 4-(4-Chlorophenyl)-N^3,N^5-bis(2,4-dimethoxyphenyl)-2,6-dimethyl-1,4-dihydropyridine-3,5-dicarboxamide]  51.4 µM
7. COc1ccc(NC(=O)C2=C(C)NC(C)=C(C(=O)Nc3cc(OC)c(Cl)cc3OC)C2c2cccc(Cl)c2)c(OC)c1 (stereo not shown) [HD-13, N ^3-(4-Chloro-2,5-dimethoxyphenyl)-4-(3-chlorophenyl)-N^5-(2,4-dimethoxyphenyl)-2,6-dimethyl-1,4-dihydropyridine-3,5-dicarboxamide]  44.1 µM
8. COc1ccc(NC(=O)C2=C(C)NC(C)=C(C(=O)Nc3cc(OC)c(Cl)cc3OC)C2c2ccccc2)c(OC)c1 (stereo not shown) [HD-11, N ^3-(4-Chloro-2,5-dimethoxyphenyl)-N^5-(2,4-dimethoxyphenyl)-2,6-dimethyl-4-phenyl-1,4-dihydropyridine-3,5-dicarboxamide]  42.4 µM
9. COc1ccc(NC(=O)C2=C(C)NC(C)=C(C(=O)Nc3cc(OC)c(Cl)cc3OC)C2c2ccc(O)cc2)c(OC)c1 (stereo not shown) [HD-15, N ^3-(4-Chloro-2,5-dimethoxyphenyl)-N^5-(2,4-dimethoxyphenyl)-4-(4-hydroxyphenyl)-2,6-dimethyl-1,4-dihydropyridine-3,5-dicarboxamide]  42.2 µM
10. COc1cc(NC(=O)C2=C(C)NC(C)=C(C(=O)Nc3cc(OC)c(Cl)cc3OC)C2c2ccc(O)cc2)c(OC)cc1Cl [HD-10, N ^3,N^5-Bis(4-chloro-2,5-dimethoxyphenyl)-4-(4-hydroxyphenyl)-2,6-dimethyl-1,4-dihydropyridine-3,5-dicarboxamide]  39.6 µM
11. COc1ccc(NC(=O)C2=C(C)NC(C)=C(C(=O)Nc3cc(OC)c(Cl)cc3OC)C2c2ccc(Cl)cc2)c(OC)c1 (stereo not shown) [HD-12, N ^3-(4-Chloro-2,5-dimethoxyphenyl)-4-(4-chlorophenyl)-N^5-(2,4-dimethoxyphenyl)-2,6-dimethyl-1,4-dihydropyridine-3,5-dicarboxamide]  37.5 µM
12. COc1ccc(NC(=O)C2=C(C)NC(C)=C(C(=O)Nc3ccc(OC)cc3OC)C2c2ccco2)c(OC)c1 [HD-4, N ^3,N^5-Bis(2,4-dimethoxyphenyl)-4-(furan-2-yl)-2,6-dimethyl-1,4-dihydropyridine-3,5-dicarboxamide]  36 µM
13. COc1cc(NC(=O)C2=C(C)NC(C)=C(C(=O)Nc3cc(OC)c(Cl)cc3OC)C2c2ccccc2)c(OC)cc1Cl [HD-6, N ^3,N^5-Bis(4-chloro-2,5-dimethoxyphenyl)-2,6-dimethyl-4-phenyl-1,4-dihydropyridine-3,5-dicarboxamide]  21.3 µM
14. COc1cc(NC(=O)C2=C(C)NC(C)=C(C(=O)Nc3cc(OC)c(Cl)cc3OC)C2c2cccc(Cl)c2)c(OC)cc1Cl [HD-8, N ^3,N^5-Bis(4-chloro-2,5-dimethoxyphenyl)-4-(3-chlorophenyl)-2,6-dimethyl-1,4-dihydropyridine-3,5-dicarboxamide]  18.3 µM
15. COc1cc(NC(=O)C2=C(C)NC(C)=C(C(=O)Nc3cc(OC)c(Cl)cc3OC)C2c2ccc(Cl)cc2)c(OC)cc1Cl [HD-7, N ^3,N^5-Bis(4-chloro-2,5-dimethoxyphenyl)-4-(4-chlorophenyl)-2,6-dimethyl-1,4-dihydropyridine-3,5-dicarboxamide]  16.8 µM
16. CS(=O)(=O)CCNCc1ccc(-c2ccc3ncnc(Nc4ccc(OCc5cccc(F)c5)c(Cl)c4)c3c2)o1 [Lapatinib, reference compound]  2.02 µM

Target: EGFR^wt kinase (Homo sapiens, UniProt P00533)
Assay: EGFR^wt kinase inhibition assay
Type: biochemical
Details: not given

Chain of EGFR^wt kinase (P00533 25-1210): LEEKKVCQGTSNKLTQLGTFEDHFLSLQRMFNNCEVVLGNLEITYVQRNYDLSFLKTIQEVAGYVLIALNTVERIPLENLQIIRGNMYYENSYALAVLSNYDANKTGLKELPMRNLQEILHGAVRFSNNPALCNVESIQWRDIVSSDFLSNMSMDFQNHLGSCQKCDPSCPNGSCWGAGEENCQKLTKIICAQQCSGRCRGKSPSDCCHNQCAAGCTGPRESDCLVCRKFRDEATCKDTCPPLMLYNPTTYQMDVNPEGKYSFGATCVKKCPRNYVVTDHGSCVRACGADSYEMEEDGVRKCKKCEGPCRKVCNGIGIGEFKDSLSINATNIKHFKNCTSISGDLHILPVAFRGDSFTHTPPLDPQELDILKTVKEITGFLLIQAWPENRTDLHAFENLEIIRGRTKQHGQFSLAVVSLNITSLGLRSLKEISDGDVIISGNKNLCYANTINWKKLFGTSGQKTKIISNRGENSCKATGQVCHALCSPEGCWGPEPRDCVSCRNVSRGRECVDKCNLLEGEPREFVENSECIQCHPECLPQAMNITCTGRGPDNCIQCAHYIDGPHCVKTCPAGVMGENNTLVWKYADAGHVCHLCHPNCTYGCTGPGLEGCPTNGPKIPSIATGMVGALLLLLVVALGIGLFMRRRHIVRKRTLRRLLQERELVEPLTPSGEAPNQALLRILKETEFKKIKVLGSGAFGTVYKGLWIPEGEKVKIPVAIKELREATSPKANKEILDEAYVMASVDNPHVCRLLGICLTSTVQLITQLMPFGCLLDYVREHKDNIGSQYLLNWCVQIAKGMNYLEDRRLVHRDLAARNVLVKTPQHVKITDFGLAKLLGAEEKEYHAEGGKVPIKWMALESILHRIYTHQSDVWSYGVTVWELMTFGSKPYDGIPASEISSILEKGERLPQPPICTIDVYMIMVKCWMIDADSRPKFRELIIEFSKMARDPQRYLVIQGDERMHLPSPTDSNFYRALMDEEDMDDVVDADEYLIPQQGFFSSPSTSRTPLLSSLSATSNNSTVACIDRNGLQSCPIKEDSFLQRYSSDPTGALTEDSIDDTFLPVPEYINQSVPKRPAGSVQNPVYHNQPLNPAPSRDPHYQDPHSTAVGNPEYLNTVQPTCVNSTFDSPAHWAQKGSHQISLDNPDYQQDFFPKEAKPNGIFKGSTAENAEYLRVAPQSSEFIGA

In order of rising IC50:
1. COc1cc(NC(=O)C2=C(C)NC(C)=C(C(=O)Nc3cc(OC)c(Cl)cc3OC)C2c2cccc(Cl)c2)c(OC)cc1Cl [HD-8, N ^3,N^5-Bis(4-chloro-2,5-dimethoxyphenyl)-4-(3-chlorophenyl)-2,6-dimethyl-1,4-dihydropyridine-3,5-dicarboxamide]  0.0159 ± 0.0012 µM
2. COc1cc(NC(=O)C2=C(C)NC(C)=C(C(=O)Nc3cc(OC)c(Cl)cc3OC)C2c2ccc(Cl)cc2)c(OC)cc1Cl [HD-7, N ^3,N^5-Bis(4-chloro-2,5-dimethoxyphenyl)-4-(4-chlorophenyl)-2,6-dimethyl-1,4-dihydropyridine-3,5-dicarboxamide]  0.0265 ± 0.00142 µM
3. COc1cc(NC(=O)C2=C(C)NC(C)=C(C(=O)Nc3cc(OC)c(Cl)cc3OC)C2c2ccccc2)c(OC)cc1Cl [HD-6, N ^3,N^5-Bis(4-chloro-2,5-dimethoxyphenyl)-2,6-dimethyl-4-phenyl-1,4-dihydropyridine-3,5-dicarboxamide]  0.0305 ± 0.00148 µM
